In patent US20020082254A1, “Compounds for treating disorders where a decreased level of plasma FFA is desired” (priority 2000, published 2002) one finds inhibition and IC50 data, which are given here for 20 molecules.

Structures can show the parent of a compound that is named as a salt. Where two headings read alike, the source gives them in different places. Some results are limits rather than exact numbers.

Experiment [1] deals with T1, Lipoprotein lipase (LPL) (Bos taurus, UniProt P11151).
T1 construct: Dr. Gunilla Olivecrona, Umea University (gift)
T1 sequence (P11151 29-478): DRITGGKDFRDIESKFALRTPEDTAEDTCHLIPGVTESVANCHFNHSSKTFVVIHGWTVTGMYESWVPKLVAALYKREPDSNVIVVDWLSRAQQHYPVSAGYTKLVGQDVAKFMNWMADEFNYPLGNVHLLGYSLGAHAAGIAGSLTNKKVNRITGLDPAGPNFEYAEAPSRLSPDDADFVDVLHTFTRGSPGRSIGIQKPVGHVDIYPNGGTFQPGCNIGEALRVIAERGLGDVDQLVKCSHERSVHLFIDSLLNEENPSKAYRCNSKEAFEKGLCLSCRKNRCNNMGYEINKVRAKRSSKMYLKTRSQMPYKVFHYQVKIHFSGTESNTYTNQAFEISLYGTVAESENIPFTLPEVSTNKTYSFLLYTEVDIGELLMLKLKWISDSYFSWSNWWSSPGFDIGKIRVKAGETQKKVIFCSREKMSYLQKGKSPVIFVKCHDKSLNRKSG
The experiment in a line: Lipoprotein lipase (LPL) inhibition assay, 3H-triolein/intralipid substrate. Format: biochemical. As to conditions: read-out: LPL inhibition (% inh. at 50 μM). The source says: Lipoprotein Lipase (LPL) [Classified as EC 3.1.1.34 in accordance with the Recommendations of the Nomenclature Committee of the International Union of Biochemistry and Molecular Biology (available on the World Wide Web at the following address: http://www.chem.qmw.ac.uk/iubmb/enzyme/)]
Materials. The lipoprotein lipase employed was obtained from Dr. Gunilla Olivecrona of Umea University, Sweden. ^3H-triolein (TO) from Amersham, Buckinghamshire, U.K., cat No. TRA191; 5-20 Ci/mmol dissolved in toluene. Intralipid is from Kabi-Fresenius). Apo CII was obtained from PMSF-treated plasma from overnight fasted rats. All other reagents are of commercial grade and obtained from various commercial sources.
Methods. The preparation of the substrate is as follows:
25 μl of ^3H-Triolein evaporated under a gentle stream of N2 in a 27° C. room in 4 ml chromacol glass followed by the addition of 1 ml 10% intralipid. This is mixed and sonicated on ice for 5 minutes (50% pulse mode). This can be kept for 1 week at 4° C.
100 μl assay medium (0.3M Tris-Cl, 0.2M NaCl, 0.2 mg heparin/ml and 120 mg BSA/ml (fraction V, Sigma no. 3401, pH 8.5))
All mixed in a 13×100 mm glass tube and incubated for at least 5 minutes.
2. Add 5 μl LPL (of a solution containing 500 mU/mg)
Mix and incubate for 30 minutes at 25° C.
3. The reaction is stopped with 3.25 ml of a solution containing Methanol:chloroform:heptan 10:9:7. Add 1.05 ml buffer (100 mM Boric acid, 100 mM potassium carbonate pH 10.5) and mix 10 seconds per vial.
5. Take 1 ml of the upper phase+10 ml scintillation fluid and mix
6. Scintillation count for 5 minutes per vial.

For experiment [2], the target named is T2, Hormone-sensitive lipase (HSL) (Homo sapiens, UniProt Q05469).
T2 sequence (Q05469 1-1076): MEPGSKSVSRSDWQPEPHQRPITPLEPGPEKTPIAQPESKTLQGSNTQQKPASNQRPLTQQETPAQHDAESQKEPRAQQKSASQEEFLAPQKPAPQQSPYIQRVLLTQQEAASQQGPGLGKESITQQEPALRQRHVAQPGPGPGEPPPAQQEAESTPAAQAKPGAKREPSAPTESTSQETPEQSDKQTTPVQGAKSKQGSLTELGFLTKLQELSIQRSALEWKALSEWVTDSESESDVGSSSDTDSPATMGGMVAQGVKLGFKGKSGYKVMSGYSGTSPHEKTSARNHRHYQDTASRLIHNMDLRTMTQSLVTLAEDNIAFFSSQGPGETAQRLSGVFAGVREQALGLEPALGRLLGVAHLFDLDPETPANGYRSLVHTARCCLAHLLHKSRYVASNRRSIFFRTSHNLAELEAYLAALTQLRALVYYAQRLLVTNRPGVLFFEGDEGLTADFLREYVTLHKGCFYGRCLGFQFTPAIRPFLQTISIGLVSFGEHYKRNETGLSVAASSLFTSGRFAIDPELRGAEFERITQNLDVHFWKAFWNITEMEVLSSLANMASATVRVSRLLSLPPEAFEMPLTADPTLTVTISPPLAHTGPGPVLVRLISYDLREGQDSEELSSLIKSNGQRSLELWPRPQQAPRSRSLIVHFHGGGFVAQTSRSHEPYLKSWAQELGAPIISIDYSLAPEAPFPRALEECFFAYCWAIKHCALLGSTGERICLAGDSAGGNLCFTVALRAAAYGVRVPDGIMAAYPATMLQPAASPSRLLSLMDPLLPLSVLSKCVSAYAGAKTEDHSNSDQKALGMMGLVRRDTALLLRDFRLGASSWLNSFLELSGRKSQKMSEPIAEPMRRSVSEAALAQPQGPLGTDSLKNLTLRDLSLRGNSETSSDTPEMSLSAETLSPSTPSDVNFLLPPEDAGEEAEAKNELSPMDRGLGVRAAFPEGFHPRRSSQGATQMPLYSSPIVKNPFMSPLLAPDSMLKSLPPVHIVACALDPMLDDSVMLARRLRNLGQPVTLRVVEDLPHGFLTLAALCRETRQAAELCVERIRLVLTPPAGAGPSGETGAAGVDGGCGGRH
The experiment in a line: Hormone-sensitive lipase (HSL) inhibition assay, 3H-labeled triolein or MOME substrate. In kind it is biochemical. The source says: Hormone-sensitive lipase (HSL) [classified as a triacylglycerol lipase, EC 3.1.1.3, in accordance with the Recommendations of the Nomenclature Committee of the International Union of Biochemistry and Molecular Biology (available on the World Wide Web at the following address: http://www.chem.qmw.ac.uk/iubmb/enzyme/)]
Materials. The Hormone-sensitive lipase employed was provided by Dr. Cecilia Holm of Lund University, Sweden, or produced and purified by Novo Nordisk (NN) using the reagents and protocols employed by Dr. Holm. The substrates used are: ^3H-labeled triolein (TO) from Amersham, Buckinghamshire, U.K. cat No. TRA191; 5-20 Ci/mmol dissolved in toluene, triolein (Sigma, Cat. No. T-1740) and mono-oleoyl-2-O-mono-oleylglycerol (MOME) synthesized at (NN) using the protocols provided by Dr. Cecilia Holm, Lund University, Sweden. Phosphatidyl choline (PC) and phosphatidyl inositol (PI) are from Sigma (St Luis Mo., cat. Nos. P-3556 and P-5954, respectively). All other reagents are of commercial grade and obtained from various commercial sources.
Methods. The preparation of the substrates is as follows:
TO: 30 μl PC:PI (20 mg/ml solution of PC:PI 3:1 prepared in chloroform)+128 μl cold TO+15 μl ^3H-TO
MOME: 30 μl PC:PI+100 μl cold MOME+200 μl ^3H-MOME
They are then evaporated under a gentle stream of N2 followed by 20-30 minutes in a Speedvac™ apparatus to ensure the absence of residual solvent.
The samples are prepared as follows:
Samples/controls: 78 μl PED-BSA+20 μl inhibitor (various concentrations)+2 μl HSL (undiluted 0.12 mg/ml). If no inhibitors are being tested, the reaction contains 98 μl PED-BSA+2 μl HSL.
The samples are put on ice and then sonicated as follows:
With TO as substrate, add 2 ml potassium buffer (0.1M potassium phosphate, pH 7) and then sonicate twice for 1 minute, with a 1-minute interval between cycles. Add an additional 1 ml potassium buffer and sonicate 4 times for 30 seconds, with a 30 second interval in between cycles. To finish, add 1 ml BSA 20%-in potassium buffer, mix by inversion and store on ice until use.
With MOME as substrate: add 2 ml potassium buffer and then sonicate twice for 1 minute, with a 1 minute interval between cycles. Add 1.6 ml potassium buffer and sonicate 4 times for 30 seconds, with a 30-second interval between cycles. To finish, add 0.4 ml BSA 20%-buffer, mix by inversion and store on ice until use.
The enzyme reaction is run at 37° C. The substrate mix is added to the various reactions at 10 second intervals, incubated for 30 minutes in a water bath and then stopped with 3.25 ml of a solution containing CH3OH:CHCl3:heptane (10:9:7). After the addition of 1.05 ml potassium buffer pH10.5, the sample is vortexed thoroughly and centrifuged for 20 min at 2000 r.p.m. One ml of the upper phase is added to 10 ml scintillation fluid, and mixed thoroughly by shaking.
The samples are then counted, 5 min per vial, in a scintillation counter.

[3] abbreviates: read-out: HSL inhibition (IC50).

For orientation: inhibition means the relative decrease from the control value, in per cent. In general, IC50 refers to the concentration that inhibits the measured activity by half. In the case of `O=C(NN1CCc2ccccc2C1)Oc1ccccc1F` [Example 15, (3,4-Dihydro-1H-isoquinolin-2-yl)-carbamic Acid 2-fluoro-phenyl Ester], the inhibition at 50 µM in experiment [1] stood at 0%. Moreover, the half-maximal inhibitory concentration (IC50) in experiment [2] (setting [3]) was determined as 1500 nM.

With `COc1cc2c(cc1OC)CN(NC(=O)Oc1ccc(Cl)cc1)CC2` [Example 16, (6,7-Dimethoxy-3.4-dihydro-1H-isoquinolin-2-yl)-carbamic Acid 4-chloro-phenyl Ester], in experiment [1], the inhibition at 50 µM came to 0%. Also, the half-maximal inhibitory concentration (IC50) in experiment [2] (setting [3]) turned out to be 1400 nM.

For the molecule `Nc1ccc(OC(=O)NN2CCc3ccccc3C2)cc1` [Example 18, (3,4-Dihydro-1H-isoquinolin-2-yl)-carbamic Acid 4-amino-phenyl Ester Hydrochloride], the inhibition at 50 µM in experiment [1] was found to be 0%. Also, the IC50 in experiment [2] (setting [3]) is 7700 nM.

`CCCc1ccc(OC(=O)NN2CCc3ccccc3C2)cc1` [Example 20, (3,4-Dihydro-1H-isoquinolin-2-yl)-carbamic Acid 4-propyl-phenyl Ester]: in experiment [1], the inhibition at 50 µM stood at 4%. Also, in experiment [2] (setting [3]), the 50% inhibitory concentration (IC50) is 240 nM.

On to `CN(C(=O)Oc1ccc(Cl)cc1)N1CCc2ccccc2C1` [Example 21, (3,4-Dihydro-1H-isoquinolin-2-yl)-methyl-carbamic Acid 4-chloro-phenyl Ester], for which the inhibition at 50 µM in experiment [1] worked out at 5%. Further, in experiment [2] (setting [3]), the IC50 is above 10000 nM.

In the case of `CC1c2ccccc2CCN1NC(=O)Oc1ccc(Cl)cc1` (stereo not shown) [Example 22, (1-Methyl-3,4-dihydro-1H-isoquinolin-2-yl)-carbamic Acid 4chloro-phenyl Ester], the inhibition at 50 µM in experiment [1] amounted to 10%. Besides, the concentration for half-maximal inhibition (IC50) in experiment [2] (setting [3]) came to 30 nM.

For `O=C(NN1CCc2ccccc2C1)Oc1ccc(Cc2ccccc2)cc1` [Example 27], in experiment [1], the inhibition at 50 µM worked out at 5%. In experiment [2], this molecule displayed a concentration for half-maximal inhibition (IC50) of 90 nM.

In the case of `CCc1ccc(OC(=O)NN2CCc3ccccc3C2)cc1` [Example 28], the inhibition at 50 µM in experiment [1] stood at 3%. Moreover, in experiment [2] (setting [3]), the half-inhibitory concentration (IC50) turned out to be 70 nM.

Consider `O=C(NN1CCc2ccccc2C1)Oc1ccc(OCc2ccccc2)cc1` [Example 29], for which, in experiment [1], the inhibition at 50 µM came out at 0%. The IC50 in experiment [2] (setting [3]) is 2600 nM.

Take `CCCCOc1ccc(OC(=O)NN2CCc3ccccc3C2)cc1` [Example 30]: in experiment [1], the inhibition at 50 µM amounted to 6%. Also, the concentration for half-maximal inhibition (IC50) in experiment [2] (setting [3]) came out at 3800 nM.

With `CCC(C)(C)c1ccc(OC(=O)NN2CCc3ccccc3C2)cc1` [Example 31], the inhibition at 50 µM in experiment [1] came to 1%. The IC50 in experiment [2] (setting [3]) was above 10000 nM.

As to `CC(C)(C)c1ccc(OC(=O)NN2CCc3ccccc3C2)cc1` [Example 32], in experiment [1], the inhibition at 50 µM was determined as 0%. In addition, the IC50 in experiment [2] (setting [3]) was above 10000 nM.

Take `CCC(C)c1ccc(OC(=O)NN2CCc3ccccc3C2)cc1` (stereo not shown) [Example 33]: the inhibition at 50 µM in experiment [1] was determined as 2%. Further, the 50% inhibitory concentration (IC50) in experiment [2] (setting [3]) was found to be 170 nM.

For the molecule `CCOC(=O)c1ccc(OC(=O)NN2CCc3ccccc3C2)cc1` [Example 35], the inhibition at 50 µM in experiment [1] was 0%. The IC50 in experiment [2] (setting [3]) was above 10000 nM.

Take `CCCCCOc1ccc(OC(=O)NN2CCc3ccccc3C2)cc1` [Example 37]: the inhibition at 50 µM in experiment [1] was found to be 0%. For the same molecule, the half-maximal inhibitory concentration (IC50) in experiment [2] (setting [3]) came out at 3900 nM.

Turning to `O=C(NN1CCc2ccccc2C1)Oc1ccc(Oc2ccccc2)cc1` [Example 38], the inhibition at 50 µM in experiment [1] worked out at 0%. In addition, the IC50 in experiment [2] (setting [3]) worked out at 330 nM.

In the case of `CCCOc1ccc(OC(=O)NN2CCc3ccccc3C2)cc1` [Example 39], the inhibition at 50 µM in experiment [1] worked out at 2%. In experiment [2] (setting [3]), the IC50 was determined as 2500 nM.

On to `O=C(NN1CCc2ccccc2C1)Oc1ccc(OC(F)(F)F)cc1` [Example 40], for which, in experiment [1], the inhibition at 50 µM is 1%. Besides, the IC50 in experiment [2] (setting [3]) came out at 3400 nM.

For the molecule `COC(=O)Cc1ccc(OC(=O)NN2CCc3ccccc3C2)cc1` [Example 42], the inhibition at 50 µM in experiment [1] stood at 6%. Besides, the IC50 in experiment [2] (setting [3]) was determined as 40 nM.

As to `O=C(NN1CCc2ccccc2C1)Oc1ccc(C2CCCCC2)cc1` [Example 43], in experiment [1], the inhibition at 50 µM was 6%. Besides, the IC50 in experiment [2] (setting [3]) was above 10000 nM.
